Assay results taken from patent US8445207B2, “Genes based on thalidomide, valproic acid and methotrexate treatment for screening of drug inducing teratogenicity and screening method using thereof” (priority 2009, dated 2013).

System: JEG-3 (human placental choriocarcinoma cell line)
Assay: Oligo microarray gene expression in drug-treated JEG-3 (Cy5 treated / Cy3 control)
Type: cell-based
Experimental: Thalidomide, valproic acid, and methotrexate were treated to human placental choriocarcinoma cell line at the concentrations determined above (Inhibition concentration: the concentration that can kill approximately 30% of the total cells, that is the concentration of 70% viability, IC30). mRNA was extracted from the drug treated cell line, followed by synthesis of cDNA which was labeled with Cy5. The non-treated control was labeled with Cy3. The fluorescence labeled cDNA was hybridized with 41K (thalidomide), 44K (valproic acid, methotrexate) human whole genome oligomicroarray chips (Agilent, USA), followed by fluorescent image scanning to analyze gene expression patterns (see FIG. 4). Volcano Plot of each substance was also attached. Y axis indicates probability (generally converted by −log 10). X axis indicates differential expression, which is presented by log-ratio.
Total RNA was separated from the treated cell by using trizol reagent (Invitrogen Life Technologies, USA) according to the manufacture's instructions, followed by purification using RNeasy mini kit (Qiagen, USA). Genomic DNA was eliminated during RNA purification using RNase-free DNase set (Qiagen, USA).
30 μg of the total RNA obtained above and 2 μg (1 μg/μl) of oligo (dT) primer were mixed, followed by reaction at 65° C. for 10 minutes. Annealing was performed in ice right after the reaction. Reagents were prepared as shown in Table 1 for reverse transcription of the annealed RNA.
The total RNA separated from the control group JEG-3 cells was labeled with Cy3-dUTP (green) and the total RNA separated from the experiment group JEG-3 cells treated with thalidomide, valproic acid and methotrexate was labeled with Cy5-dUTP (red). At this time, the two samples were mixed and purified by Microcon YM-30 column (Millipore, USA).
Hybridization and washing were performed by the manufacturer's (GenoCheck, Korea) instructions. Particularly, hybridization was performed in a 62° C. oven for 12 hours. As a DNA microarray chip, 44 k whole human genome oligo microarray (Agilent, USA) was used. After washing (2 minutes with 2×SSC/0.1% SDS, three minutes with 1×SSC, 2 minutes with 0.2×SSC), the slide was dried by centrifugation at 800 rpm for 3 minutes.
Hybridization image on the slide was scanned with Genepix 4000B (Axon Instruments, USA). Fluorescence image of the chip on which non-hybridized genes had been washed out was obtained by using laser fluorescence scanner. Green fluorescence image indicates the activity of gene specifically expressed in the control group and red fluorescence image indicates the activity of gene specifically expressed in the experimental group. […] Scanned image was analyzed by using GenePix 4.1 software (Axon Instruments, USA) to calculate gene expression rate.

[1] = out of 21797 (thalidomide), 21921 (valproic acid), 24006 (methotrexate) genes
[2] = treated at IC30, up-regulated gene, (k) common gene which has no function

For `CN(Cc1cnc2nc(N)nc(N)c2n1)c1ccc(C(=O)N[C@@H](CCC(=O)O)C(=O)O)cc1` [MTX, methotrexate], the “Ratio of intermediate value, ATM” value (Genbank NM_000051, drug at IC30) was 0.48, the “Ratio of intermediate value, KAL1” value (Genbank NM_000216, drug at IC30) was 0.43 and the “Ratio of intermediate value, PMP22” value (Genbank NM_000304, drug at IC30) was 0.43. The “Ratio of intermediate value, ATR” value (Genbank NM_001184, drug at IC30) was 0.41, the “Ratio of intermediate value, PARP1” value (Genbank NM_001618, drug at IC30) was 0.60 and the “Ratio of intermediate value, AUH” value (Genbank NM_001698, drug at IC30) was 0.39. The “Ratio of intermediate value, CDO1” value (Genbank NM_001801, drug at IC30) was 0.45, the “Ratio of intermediate value, MGMT” value (Genbank NM_002412, drug at IC30) was 0.48 and the “Ratio of intermediate value, NTHL1” value (Genbank NM_002528, drug at IC30) was 0.42. For the same compound, the “Ratio of intermediate value, UNG” value (Genbank NM_003362, drug at IC30) was 0.41, the “Ratio of intermediate value, EEF1E1” value (Genbank NM_004280, drug at IC30) was 0.46 and the “Ratio of intermediate value, FEZ1” value (Genbank NM_005103, drug at IC30) was 0.43. The “Ratio of intermediate value, BCAT1” value (Genbank NM_005504, drug at IC30) was 0.12, the “Ratio of intermediate value, BCKDK” value (Genbank NM_005881, drug at IC30) was 0.48 and the “Ratio of intermediate value, POLD2” value (Genbank NM_006230, drug at IC30) was 0.29. The “Ratio of intermediate value, FARS2” value (Genbank NM_006567, drug at IC30) was 0.46, the “Ratio of intermediate value, POLG2” value (Genbank NM_007215, drug at IC30) was 0.45 and the “Ratio of intermediate value, ABL1” value (Genbank NM_007313, drug at IC30) was 0.49. For the same compound, the “Ratio of intermediate value, LIG3” value (Genbank NM_013975, drug at IC30) was 0.49, the “Ratio of intermediate value, CGI-04” value (Genbank NM_015936, drug at IC30) was 0.47 and the “Ratio of intermediate value, MAPT” value (Genbank NM_016835, drug at IC30) was 0.38. For the same compound, the “Ratio of intermediate value, FLJ10514” value (Genbank NM_018122, drug at IC30) was 0.38, the “Ratio of intermediate value, LGP1” value (Genbank NM_032484, drug at IC30) was 0.49 and the “Ratio of intermediate value, PSAT1” value (Genbank NM_058179, drug at IC30) was 0.31. For the same compound, the “Ratio of intermediate value, HARS2” value (Genbank NM_080820, drug at IC30) was 0.26, the “Ratio of intermediate value, DBN1” value (Genbank NM_080881, drug at IC30) was 0.44 and the “Ratio of intermediate value, ASNS” value (Genbank NM_133436, drug at IC30) was 0.33. The “Ratio of intermediate value, ROBO1” value (Genbank NM_133631, drug at IC30) was 0.39, the “Ratio of intermediate value, TARSL2” value (Genbank NM_152334, drug at IC30) was 0.36 and the “Ratio of intermediate value, CNTN4” value (Genbank NM_175607, drug at IC30) was 0.31. The “Ratio of intermediate value, ERCC8” value (Genbank NM_001007233, drug at IC30) was 0.41, the “Ratio of intermediate value, RAD50” value (Genbank U63139, drug at IC30) was 0.36 and the “Ratio of intermediate value, VARS2” value (Genbank X59303, drug at IC30) was 0.33. The “Ratio of intermediate value, SR140” value (Genbank XM_031553, drug at IC30) was 0.66, the “Ratio of intermediate value, LOC389173” value (Genbank XM_371677, drug at IC30) was 0.27 and the “genes down-regulated (ratio of intermediate value less than 0.666)” value (JEG-3, drug at IC30, 48 hours) was 6.28%. The “genes up-regulated (ratio of intermediate value more than 1.5)” value (JEG-3, drug at IC30, 48 hours) was 9.5%, the “number of genes down-regulated” value [1] was 1508 and the “number of genes up-regulated” value [1] was 2149. The “Ratio of intermediate value, gene ATP10B (AB018258, ATPase, Class V, type 10B)” value [2] was 4.95, the “Ratio of intermediate value, gene BQ186674 (cDNA clone UI-E-EJ1-ajr-f-10-0-UI, Hypothetical gene supported by AF086204)” value [2] was 3.79 and the “Ratio of intermediate value, gene BX111592 (Transcribed locus, moderately similar to XP_066443.6 PREDICTED: similar to paraneoplastic antigen like 6A)” value [2] was 9.86. The “Ratio of intermediate value, gene CGA (NM_000735, Glycoprotein hormones, alpha polypeptide)” value [2] was 8.07, the “Ratio of intermediate value, gene COBLL1 (BX649112, COBL-like 1)” value [2] was 4.89 and the “Ratio of intermediate value, gene CYP19A1 (AK023571, Cytochrome P450, family 19, subfamily A, polypeptide 1)” value [2] was 2.72. The “Ratio of intermediate value, gene FLJ11017 (AK001879, Hypothetical protein FLJ11017)” value [2] was 4.69, the “Ratio of intermediate value, gene GLCCI1 (AK126731, Glucocorticoid induced transcript 1)” value [2] was 2.84 and the “Ratio of intermediate value, gene KIAA0310 (AB002308, KIAA0310)” value [2] was 2.29. The “Ratio of intermediate value, gene MGC27016 (AK125877, Hypothetical protein MGC27016)” value [2] was 1.52, the “Ratio of intermediate value, gene NCOA3 (NM_181659, Nuclear receptor coactivator 3)” value [2] was 2.12 and the “Ratio of intermediate value, gene RGS2 (BC042755, Regulator of G-protein signalling 2, 24 kDa)” value [2] was 9.24. For the same compound, the “Ratio of intermediate value, gene SIAT7A (BC063830, ST6 (alpha-N-acetyl-neuraminyl-2,3-beta-galactosyl-1,3)-N-acetylgalactosaminide alpha-2,6-sialyltransferase 1)” value [2] was 15.01, the “Ratio of intermediate value, gene SIAT8D (NM_005668, ST8 alpha-N-acetyl-neuraminide alpha-2,8-sialyltransferase 4)” value [2] was 1.82 and the “Ratio of intermediate value, gene SLC7A8 (Y18483, Solute carrier family 7 (cationic amino acid transporter, y+ system), member 8)” value [2] was 3.76. The “Ratio of intermediate value, gene SLC40A1 (AK023574, Solute carrier family 40 (iron-regulated transporter), member 1)” value [2] was 3.06, the “Ratio of intermediate value, gene TFCP2L4 (BC036890, Grainyhead-like 3 (Drosophila))” value [2] was 4.11 and the “Ratio of intermediate value, gene TTF2 (AB209845, Transcription termination factor, RNA polymerase II)” value [2] was 1.94. For the same compound, the “Ratio of intermediate value, gene TUBB3 (AK122757, Tubulin, beta 3)” value [2] was 7.85 and the “Ratio of intermediate value, gene TncRNA (AF001893, Trophoblast-derived noncoding RNA)” value [2] was 2.11.
